Experimental data as given in patent publication US9434725B2, “5-azaindazole compounds and methods of use” (priority 2012, dated 2016).

Experiments:
Type in all cases: biochemical
PIM1 = PIM1 (Homo sapiens (Human), UniProt P11309); assay: biochemical; settings: 10 μM ATP, 90 min, room temperature; read-out: PIM1 LC3K (KI)
Method: A fluorescent-labeled Pim-specific peptide substrate, was custom synthesized by American Peptide Company (Sunnyvale, Calif.). Reaction Buffer contained 10 mM HEPES, pH 7.2, 10 mM MgCl2, 0.01% Tween 20, 2 mM DTT. Termination Buffer contained 190 mM HEPES, pH 7.2, 0.015% Brij-35, 0.2% Coating Reagent 3 (Caliper Life Sciences, Hopkinton, Mass.), 20 mM EDTA. Separation Buffer contained 100 mM HEPES, pH 7.2, 0.015% Brij-35, 0.1% Coating Reagent 3, 1:200 Coating Reagent 8 (Caliper Life Sciences, Hopkinton, Mass.), 10 mM EDTA and 5% DMSO.
PIM reactions were carried out in a final volume of 10 μL per well in a 384-well plate. […] After 90 minutes of incubation at room temperature, the phosphorylation reaction was stopped by the addition of 10 μL Termination Buffer. The product and substrate in each independent reaction were separated on a 12-sipper microfluidic chip (Caliper Life Sciences, Hopkinton, Mass.) run on a Caliper LC3000® (Caliper Life Sciences, Hopkinton, Mass.). The separation of product and substrate was optimized by choosing voltages and pressure using Caliper's Optimizer software (Hopkinton, Mass.). […] Substrate conversion was calculated from the electropherogram using HTS Well Analyzer software (Caliper Life Sciences, Hopkinton, Mass.). Ki values for the test compound were calculated.

PIM2 = PIM2 (Homo sapiens (Human), UniProt Q9P1W9); assay: Pim kinase binding activity, Caliper LC3000 microfluidic peptide phosphorylation assay, PIM2; settings: 10 μM ATP, 90 min, room temperature; read-out: PIM2 LC3K (KI)
In short: (§1)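 Read-out is microfluidic electrophoretic separation of phosphorylated from unphosphorylated fluorescent Pim peptide, with Ki calculated from conversion. Reactions ran 90 min at room temperature in HEPES pH 7.2 containing MgCl2, Tween 20 and DTT, ended by EDTA-containing buffer.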

PIM3 = PIM3 (Homo sapiens (Human), UniProt Q86V86); assay: Pim kinase binding activity, Caliper LC3000 microfluidic peptide phosphorylation assay, PIM3; settings: 10 μM ATP, 90 min, room temperature; read-out: PIM3 LC3K (KI)
In short: as §1

PIM2, sequence (Q9P1W9 whole entry): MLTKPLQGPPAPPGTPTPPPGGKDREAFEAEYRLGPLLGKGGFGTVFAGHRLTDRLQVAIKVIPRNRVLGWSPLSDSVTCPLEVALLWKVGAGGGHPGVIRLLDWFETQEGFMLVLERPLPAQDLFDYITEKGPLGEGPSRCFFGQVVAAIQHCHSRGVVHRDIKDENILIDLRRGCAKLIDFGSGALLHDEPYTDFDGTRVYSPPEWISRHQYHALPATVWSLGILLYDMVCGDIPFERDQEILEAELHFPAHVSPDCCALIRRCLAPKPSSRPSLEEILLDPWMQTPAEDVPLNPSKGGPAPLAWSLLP
PIM1, sequence (P11309 whole entry): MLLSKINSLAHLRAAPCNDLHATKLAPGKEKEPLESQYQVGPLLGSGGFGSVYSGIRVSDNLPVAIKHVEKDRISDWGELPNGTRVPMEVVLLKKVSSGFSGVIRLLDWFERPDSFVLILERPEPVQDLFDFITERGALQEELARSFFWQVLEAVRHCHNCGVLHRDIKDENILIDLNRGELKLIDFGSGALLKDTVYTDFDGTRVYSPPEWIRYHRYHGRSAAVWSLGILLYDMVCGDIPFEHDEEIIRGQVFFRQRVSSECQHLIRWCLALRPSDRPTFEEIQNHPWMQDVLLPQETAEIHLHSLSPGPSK

| Ki (PIM1) | Ki (PIM2) | Ki (PIM3) | Compound |
| --- | --- | --- | --- |
| 26.2 nM | 744 nM | 23.2 nM | Cc1cncc(-c2cc3c(cn2)cnn3-c2ccc(C)c(N3C[C@@H](N)CCC3=O)n2)n1 [Compound 221, (5S)-5-amino-1-[3-methyl-6-[6-(6-methylpyrazin-2-yl)pyrazolo[4,3-c]pyridin-1-yl]-2-pyridyl]piperidin-2-one] |
| 0.125 nM | 0.979 nM | 0.073 nM | COc1ncc(-n2ncc3cnc(-c4cncc(C)n4)cc32)nc1N1CCC[C@H](N)C1 [Compound 222, (3S)-1-[3-methoxy-6-[6-(6-methylpyrazin-2-yl)pyrazolo[4,3-c]pyridin-1-yl]pyrazin-2-yl]piperidin-3-amine] |
| 2.37 nM | 7.11 nM | 1.84 nM | Cc1cncc(-c2cc3c(cn2)cnn3-c2cnc(O)c(N3CCC[C@H](N)C3)n2)n1 [Compound 223, 3-[(3S)-3-amino-1-piperidyl]-5-[6-(6-methylpyrazin-2-yl)pyrazolo[4 3-c]pyridin-1-yl]pyrazin-2-ol] |
| 1.65 nM | 10.4 nM | 0.89 nM | Cc1cncc(-c2cc3c(cn2)cnn3-c2cnc(Cl)c(N3CCC[C@H](N)C3)n2)n1 [Compound 226, (3S)-1-[3-chloro-6-[6-(6-methylpyrazin-2-yl)pyrazolo[4,3-c]pyridin-1-yl]pyrazin-2-yl]piperidin-3-amine] |
| 0.316 nM | 9.39 nM | 0.131 nM | Cn1cc(-c2cc3c(cn2)cnn3-c2cccc(N3CCNC[C@@H](O)C3)n2)cn1 [Compound 229, (R)-1-(6-(6-(1-Methyl-1H-pyrazol-4-yl)-1H-pyrazolo[4,3-c]pyridin-1-yl)pyridin-2-yl)-1,4-diazepan-6-ol] |
| 5.05 nM | 63.3 nM | 4.32 nM | Cn1cc(-c2cc3c(cn2)cnn3-c2cccc(C3(O)CCCNCC3)n2)cn1 (stereo not drawn) [Compound 230, 4-(6-(6-(1-Methyl-1H-pyrazol-4-yl)-1H-pyrazolo[4,3-c]pyridin-1-yl)pyridin-2-yl)azepan-4-ol] |
| 1.19 nM | 21.1 nM | 0.83 nM | Cc1cncc(-c2cc3c(cn2)cnn3-c2cccc(N3CC(O)C(O)C3)n2)n1 (stereo not drawn) [Compound 232, 1-[6-[6-(6-methylpyrazin-2-yl)pyrazolo[4,3-c]pyridin-1-yl]-2-pyridyl]pyrrolidine-3 4-diol] |
| 528 nM | 2300 nM | 903 nM | Cc1cncc(-c2cc3c(cn2)cnn3-c2cc(N3CCC[C@H](N)C3)c(=O)n(C)c2)n1 [Compound 233, (S)-3-(3-aminopiperidin-1-yl)-1-methyl-5-(6-(6-methylpyrazin-2-yl)-1H-pyrazolo[4,3-c]pyridin-1-yl)pyridin-2(1H)-one] |
| 0.107 nM | 2.25 nM | 0.236 nM | COc1ccc(-n2ncc3cnc(-c4cnn(CC(F)(F)F)c4)cc32)nc1N1CCNC[C@@H](O)C1 [Compound 234, (R)-1-(3-Methoxy-6-(6-(1-(2,2,2-trifluoroethyl)-1H-pyrazol-4-yl)-1H-pyrazolo-[4,3-c]pyridin-1-yl)pyridin-2-yl)-1,4-diazepan-6-ol] |
| 1.55 nM | 16.5 nM | 0.806 nM | Cn1cc(-c2cc3c(cn2)cnn3-c2cccc(C3CCCNCC3)n2)cn1 (stereo not drawn) [Compound 235, 1-(6-(azepan-4-yl)pyridin-2-yl)-6-(1-methyl-1H-pyrazol-4-yl)-1H-pyrazolo[4,3-c]pyridine] |
| 0.715 nM | 8.6 nM | 0.37 nM | Cn1cc(-c2cc3c(cn2)cnn3-c2cccc(C3(F)CCCNCC3)n2)cn1 (stereo not drawn) [Compound 236, 1-(6-(4-Fluoroazepan-4-yl)pyridin-2-yl)-6-(1-methyl-1H-pyrazol-4-yl)-1H-pyrazolo[4,3-c]pyridine] |
| 0.31 nM | 10.1 nM | 0.587 nM | COc1ccc(-n2ncc3cnc(-c4cnn(CC(F)(F)F)c4)cc32)nc1N1CCNC[C@H](O)C1 [Compound 237, (S)-1-(3-Methoxy-6-(6-(1-(2,2,2-trifluoroethyl)-1H-pyrazol-4-yl)-1H-pyrazolo-[4,3-c]pyridin-1-yl)pyridin-2-yl)-1,4-diazepan-6-ol] |
